Test results as given in BindingDB's records for patent US9284322 (Research Triangle Institute, 2016).

Target: Isoform Alpha-4-2 of Neuronal acetylcholine receptor subunit alpha-4 (Alpha-4-2)/Neuronal acetylcholine receptor subunit beta-2 (Rat, UniProt P09483+P12390)
Assay: Adult male rat cerebral cortices (Pelfreeze Biological, Rogers, Ark.) were homogenized in 39 volumes of ice-cold 50 mM Tris buffer (pH 7.4 at 4° C.) containing 120 mM NaCl, 5 mM KCl, 2 mM CaCl2, and 1 mM MgCl2 and sedimented at 37,000 g for 10 min at 4° C. The supernatant was discarded, the pellet resuspended in the original volume of buffer, and the wash procedure repeated twice more. After the last centrifugation, the pellet was resuspended in 1/10 its original homogenization volume and stored at −80° C. until needed. […] Total and nonspecific bindings were determined in the presence of vehicle and 300 μM (−)-ni
Settings: 25 °C

Sequence of Isoform Alpha-4-2 of Neuronal acetylcholine receptor subunit alpha-4 (Alpha-4-2)/Neuronal acetylcholine receptor subunit beta-2 (P09483 as listed by the source): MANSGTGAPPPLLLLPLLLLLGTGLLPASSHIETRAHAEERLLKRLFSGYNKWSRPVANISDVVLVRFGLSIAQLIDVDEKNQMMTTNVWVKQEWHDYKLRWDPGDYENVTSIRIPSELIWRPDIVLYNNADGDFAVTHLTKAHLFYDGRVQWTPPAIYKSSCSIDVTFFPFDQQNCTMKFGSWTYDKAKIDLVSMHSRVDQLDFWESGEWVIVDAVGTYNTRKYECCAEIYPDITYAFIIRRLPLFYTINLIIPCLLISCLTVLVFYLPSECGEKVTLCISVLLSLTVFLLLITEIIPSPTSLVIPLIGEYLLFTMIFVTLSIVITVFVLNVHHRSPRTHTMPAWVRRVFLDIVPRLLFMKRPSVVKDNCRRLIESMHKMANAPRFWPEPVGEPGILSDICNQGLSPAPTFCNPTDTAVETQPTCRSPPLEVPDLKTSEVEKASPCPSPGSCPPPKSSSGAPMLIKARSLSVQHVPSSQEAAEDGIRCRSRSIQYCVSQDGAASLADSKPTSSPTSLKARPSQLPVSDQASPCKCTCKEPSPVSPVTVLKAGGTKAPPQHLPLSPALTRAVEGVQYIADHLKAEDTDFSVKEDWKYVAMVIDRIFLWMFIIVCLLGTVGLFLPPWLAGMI
Sequence of Isoform Alpha-4-2 of Neuronal acetylcholine receptor subunit alpha-4 (Alpha-4-2)/Neuronal acetylcholine receptor subunit beta-2 (P12390 whole entry, canonical isoform): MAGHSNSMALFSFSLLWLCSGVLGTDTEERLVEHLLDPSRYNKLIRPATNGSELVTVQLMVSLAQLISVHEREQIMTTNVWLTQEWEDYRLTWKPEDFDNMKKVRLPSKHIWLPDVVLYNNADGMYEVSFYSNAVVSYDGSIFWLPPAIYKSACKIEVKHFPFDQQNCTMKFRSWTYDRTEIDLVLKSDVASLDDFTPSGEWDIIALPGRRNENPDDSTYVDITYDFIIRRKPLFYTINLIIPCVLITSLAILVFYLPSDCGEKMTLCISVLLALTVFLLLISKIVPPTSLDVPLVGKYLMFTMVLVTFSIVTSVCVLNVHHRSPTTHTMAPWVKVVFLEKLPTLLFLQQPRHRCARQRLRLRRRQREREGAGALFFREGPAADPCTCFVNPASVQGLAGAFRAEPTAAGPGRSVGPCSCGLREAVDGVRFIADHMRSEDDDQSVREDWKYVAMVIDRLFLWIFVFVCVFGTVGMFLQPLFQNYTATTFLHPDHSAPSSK

Row | SMILES | Ki [nM]
1 | Fc1ncc(C2CC3CCC2N3)cc1-c1cncnc1 (stereo not drawn) [US9284322, Table 7, Compound 2] | 0.84
2 | Clc1ncc(C2CC3CCC2N3)cc1-c1cncnc1 (stereo not drawn) [US9284322, Table 7, Compound 3] | 0.32
3 | c1ncc(-c2cncc(C3CC4CCC3N4)c2)cn1 (stereo not drawn) [US9284322, Table 7, Compound 1] | 0.12
